Reference: publication PMC9356275, “A quantitative high-throughput screen identifies compounds that lower expression of the SCA2-and ALS-associated gene ATXN2” (The Journal of Biological Chemistry, 2022)
pIC50: −log10 of the molar value. Values joined by “and” are separate entries in the source; they are usually repeats but may differ in a detail not shown here. Equal values may be shown once. Where a name gives a salt, the structure may show the parent alone. Read-outs that look alike come from different tables or passages of the source.

What was measured:
Assay type in all cases: cell-based, human
[1] = system: ATXN2-luc; test: MSSR pilot screen: ATXN2-luc luciferase assay (Bright-Glo) in H2 cells, single 10 μM dose; settings: for SD from mean (ATXN2-luc, Z-score): H2 cells, single dose (title: 10 μM compound), overnight; for ¦Score/1SD¦: absolute score divided by 1SD (0.891 or 0.9)
[2] = system: H2 and S1 cells; test: Paired MTT viability assay, average of H2 and S1 cells (1 and 10 uM); settings: Homo sapiens
Source text: (§1) Supplement mmc2.xlsx, sheet "43 annotated compounds"

[3] = system: ATXN2-luc; test: MSSR hit retest: ATXN2-luc luciferase assay, average of H2 and S1 cells (1 and 10 uM); settings: Homo sapiens; for activity at 1 µM: read-out: H2&S1 ave luc 1uM; for activity at 10 µM: head line r3 10uM; for activity at 10 µM / activity: read-out: H2&S1 ave luc 10uM
Source text: as §1

[4] = system: ATXN2-luc; test: NCATS qHTS (LOPAC pilot, primary and confirmation): ATXN2-luc in S2 cells, 1536-well, Steady-Glo; settings: for AC50 / Log AC50 / Efficacy / Inf Activity / Hill Coef / Zero Activity / Max Resp: LOPAC library screening optimization; for Curve Class: LOPAC library (1,280 compounds) screening optimization, signed sub-classes (-1.1, -2.2, -3 ...); for Efficacy / Inf Activity / Hill Coef / Zero Activity: curve-fit parameter; for Max Resp: response at highest tested concentration
Procedure: We next performed a pilot screen assay to optimize the 1536-well qHTS using S2 cells. […] Cytotoxicity was determined using a multiplexed viability assay (CellTiter-Fluor, a fluorescence-based viability assay using Gly-Phe-7-amino-4-trifluoromethylcoumarin substrate).
CellTiter-Fluor was used to determine compound effect on cell viability, and Steady-Glo was used to measure luciferase in a multiplexed assay.
The primary assay was conducted at the NCATS NIH Chemical Genomics Center laboratory. About 4 μl of S2 cell suspension in phenol red–free DMEM was dispensed into wells of 1536-well assay plates. […] Next, SteadyGlo luciferase substrate detection reagent (3 μl) was added to each well and incubated for an additional 5 min at room temperature. Luminescence was then measured on the ViewLux imager equipped with clear filters using a 2 s exposure. All screening operations were performed on a fully integrated robotic system (Kalypsys) containing one RX-130 and two RX-90 anthropomorphic robotic arms (Stäubli). Vehicle-only plates, with DMSO being pin-transferred to columns 5 to 48, were inserted uniformly at the beginning and the end of each library in order to monitor and record any shifts in assay performance.

[5] = system: ATXN2-luc; test: Secondary assays: ATXN2-luc in S2 and H2 cells, 12 doses, Bright-Glo; settings: Homo sapiens; H2 and S2 values used as replicates, 24 h; read-out: IC50 for lowering ATXN2-luc
Procedure: The values for H2 and S2 were used as replicates to calculate IC50s and to assess cell viability.
Compounds were plated at 2× concentrations in phenol red–free DMEM in 25 μl in 384-well plates with each compound dose plated in triplicate. An equal volume of S2, H2, or SC cells (24,000 cells/well) suspended in phenol red–free DMEM with 10% fetal bovine serum and 1× penicillin/streptomycin were added. Cells were grown 24 h and then assayed first by using the CellTiter-Fluor reagent (20 μl) followed by the addition of Bright-Glo (65 μl) luciferase assay, using a multimode plate reader (Beckman; DT880). Values were reported as the mean ± SD with n = 3. IC50s were determined by the Hill coefficient method using an online tool (https://www.aatbio.com/tools/ic50-calculator).

[6] = pilot screen at 10 µM compound, H2 cells expressing ATXN2-luc
[7] = 1 uM compound, read-out: H2&S1 ave MTT 1uM
[8] = 10 uM compound, read-out: H2&S1 ave MTT 10uM
[9] = 1 uM compound, average of H2 and S1 cells
[10] = read-out: H2&S1 ave MTT 1uM, 1 uM compound
[11] = read-out: H2&S1 ave MTT 10uM, 10 uM compound
[12] = Homo sapiens, logarithm of AC50 (negative values), read-out: Log AC50 (converted)
[13] = logarithm of AC50 (negative values)

Structure (SMILES)	SD from mean (ATXN2-luc, Z-score) [1] [SD]	AC50 [4, 12] [µM]	AC50 ([4]; Homo sapiens, read-out: AC50) [µM]	Curve Class [4]	Log AC50 [4, 13]	AC50 ([4]; read-out: AC50) [µM]	Efficacy [4]	Inf Activity [4]	further results
C[C@@H]1O[C@@H](O[C@H]2CC[C@]3(C=O)[C@H]4CC[C@]5(C)[C@@H](C6=CC(=O)OC6)CC[C@]5(O)[C@@H]4CC[C@]3(O)C2)[C@H](O)[C@H](O)[C@H]1O [CONVALLATOXIN]	-3.689								SD from mean (pilot screen) ([1]; pilot screen): -3.689 SD; SD from mean (pilot screen) [1, 6]: -3.689; ¦Score/1SD¦ ([1]; pilot screen): 4.10; viability at 1 µM [2, 7]: 62.2%; viability at 10 µM [2, 8]: 70%; activity at 1 µM [3, 9]: 12%; activity at 10 µM ([3]; average of H2 and S1 cells): 11%
CO[C@H]1C[C@H](O[C@H]2CC[C@]3(C=O)[C@H]4CC[C@]5(C)[C@@H](C6=CC(=O)OC6)CC[C@]5(O)[C@@H]4CC[C@]3(O)C2)O[C@H](C)[C@H]1O [CYMARIN]	-4.099								SD from mean (pilot screen) ([1]; pilot screen): -4.099 SD; SD from mean (pilot screen) [1, 6]: -4.099; ¦Score/1SD¦ ([1]; pilot screen): 4.55; viability at 1 µM [2, 10]: 54.2%; viability at 10 µM [2, 11]: 59.3%; activity at 1 µM [3]: 14%; activity [3]: 16%
CC(C)=CCc1c(O)cc2occ(-c3ccc4c(c3)OCO4)c(=O)c2c1O [DERRUBONE]	-3.621								SD from mean (pilot screen) ([1]; pilot screen): -3.621 SD; SD from mean (pilot screen) [1, 6]: -3.621; ¦Score/1SD¦ ([1]; pilot screen): 4.02; viability at 1 µM [2, 7]: 107%; viability at 10 µM [2, 8]: 101%; activity at 1 µM [3, 9]: 11%; activity at 10 µM ([3]; average of H2 and S1 cells): 15%
C[C@H]1O[C@@H](O[C@H]2[C@@H](O)C[C@H](O[C@H]3[C@@H](O)C[C@H](O[C@H]4CC[C@@]5(C)[C@H](CC[C@@H]6[C@@H]5CC[C@]5(C)[C@@H](C7=CC(=O)OC7)CC[C@]65O)C4)O[C@@H]3C)O[C@@H]2C)C[C@H](O)[C@@H]1O [DIGITOXIN]	-4.100								SD from mean (pilot screen) ([1]; pilot screen): -4.100 SD; SD from mean (pilot screen) [1, 6]: -4.100; ¦Score/1SD¦ ([1]; pilot screen): 4.56; viability at 1 µM [2, 10]: 34.3%; viability at 10 µM [2, 11]: 49.1%; activity at 1 µM [3]: 27%; activity [3]: 19%
CNCCCN1c2ccccc2CCc2ccccc21 [Desipramine hydrochloride]		12.6	12.6	-2.2	-4.85	14.1			
C[C@]12CC[C@H](O)C[C@H]1CC[C@@H]1[C@@H]2CC[C@]2(C)[C@@H](C3=CC(=O)OC3)CC[C@]12O [Digitoxigenin]	-3.629								SD from mean (pilot screen) ([1]; pilot screen): -3.629 SD; SD from mean (pilot screen) [1, 6]: -3.629; ¦Score/1SD¦ ([1]; pilot screen): 4.07; viability at 1 µM [2, 7]: 81.6%; viability at 10 µM [2, 8]: 74.8%; activity at 1 µM [3, 9]: 38%; activity at 10 µM ([3]; average of H2 and S1 cells): 13%
C[C@]12CC[C@H](O)C[C@H]1CC[C@@H]1[C@@H]2C[C@@H](O)[C@]2(C)[C@@H](C3=CC(=O)OC3)CC[C@]12O [Digoxigenin]	-3.264								SD from mean (pilot screen) ([1]; pilot screen): -3.264 SD; SD from mean (pilot screen) ([1]; pilot screen, H2 cells expressing ATXN2-luc, single dose printed as 10 μM compound): -3.264; ¦Score/1SD¦ ([1]; pilot screen): 3.66; viability at 1 µM [2, 7]: 60.4%; viability at 10 µM [2, 8]: 31.6%; activity at 1 µM [3, 9]: 90%; activity at 10 µM ([3]; average of H2 and S1 cells): 22%
CNCCC(Oc1ccc(C(F)(F)F)cc1)c1ccccc1 (stereo not drawn) [Fluoxetine hydrochloride]		12.6	12.6	-2.1	-4.85	14.1			
c1ccc(CN2CCC3(CCCc4ccccc43)CC2)cc1 [L-687,384 hydrochloride]		14.1	14.1	-2.2			-56.3105	-51.8105	
CC(=O)O[C@H]1C[C@H](O[C@H]2[C@@H](O)C[C@H](O[C@H]3[C@@H](O)C[C@H](OC4CC[C@@]5(C)C(CC[C@@H]6[C@@H]5CC[C@]5(C)[C@@H](C7=CC(=O)OC7)[C@@H](O)C[C@]65O)C4)O[C@@H]3C)O[C@@H]2C)O[C@H](C)[C@H]1O[C@@H]1O[C@H](CO)[C@@H](O)[C@H](O)[C@H]1O (stereo partly drawn) [Lanatoside B]		1.26	1.26				-78.0523	-90.3741	
CNCCC(Oc1ccc(C(F)(F)F)cc1)c1ccccc1.Cl (stereo not drawn) [MLS001076338-01]				-3	-4.6	25.1	-91.3933	-89.6057	Hill Coef [4]: 3.5722; Zero Activity [4]: 1.7876; Max Resp [4]: -84.8539
CNCC[C@H](Oc1ccc(C(F)(F)F)cc1)c1ccccc1.Cl [MLS002153300-01]				-2.2	-4.45	35.5	-72.8775	-81.66	Hill Coef [4]: 2.1211; Zero Activity [4]: -8.7824; Max Resp [4]: -62.2424
Oc1ccc2c3c1O[C@H]1c4[nH]c5ccccc5c4C[C@@]4(O)[C@@H](C2)N(CC2CC2)CC[C@]314 [Naltrindole hydrochloride]		14.1	14.1	-2.2	-4.75	17.8			
CNCCCC1c2ccccc2C=Cc2ccccc21 [Protriptyline hydrochloride]		31.6	31.6				-59.559	-66.4303	
C=C[C@H]1C[N@@]2CC[C@H]1C[C@H]2[C@H](O)c1ccnc2ccc(OC)cc12 [Quinine sulfate]		35.5	35.5				-70.489	-66.665	
CC(C)NC[C@@H](O)c1ccc(O)c(O)c1 [S(+)-Isoproterenol (+)-bitartrate]		31.6	31.6				-77.2877	-79.7998	
CNCC[C@H](Oc1ccc(C(F)(F)F)cc1)c1ccccc1 [S-(+)-Fluoxetine hydrochloride]		14.1	14.1	-2.2	-4.8	15.8			
C[C@@H]1O[C@@H](O[C@H]2C[C@@H](O)[C@]3(CO)[C@@H]4[C@@H](O)C[C@]5(C)[C@H](C6=CC(=O)OC6)CC[C@@]5(O)[C@H]4CC[C@@]3(O)C2)[C@H](O)[C@H](O)[C@@H]1O.O.O.O.O.O.O.O.O [Strophantine octahydrate]	-3.624	0.0891	0.0891				-95.9071	-89.7119	
Nc1nc(=S)c2ncn([C@@H]3O[C@H](CO)[C@@H](O)[C@H]3O)c2[nH]1 [Thioguanosine]		3.55	3.55				-64.1845	-62.8466	
CNCC[C@@H](Oc1ccccc1C)c1ccccc1 [Tomoxetine]		28.2	28.2	-2.2			-86.2041	-86.6862	
C[C@H](N)CN1CCc2ccc(Br)cc21 [VER-3323 hemifumarate salt]		11.2	11.2	-2.2	-4.8	15.8			
C[C@@H]1O[C@@H](O[C@H]2C[C@@H](O)[C@]3(CO)[C@H]4[C@H](O)C[C@]5(C)[C@@H]([C@H]6COC(=O)C6)CC[C@]5(O)[C@@H]4CC[C@]3(O)C2)[C@H](O)[C@H](O)[C@H]1O [dihydroouabain]									Hill Coef [4]: 3.0654 and 2.7202 and 1.8851 and 1.6604
CC(C)c1cc(-c2n[nH]c(=O)n2-c2ccc3c(ccn3C)c2)c(O)cc1O [ganetespib]									pIC50 [5]: 7.52
